Here are results for twelve compounds from patent publication US12139492B2 (Endotarget Inc., priority 2021, dated 2024).

Broadly, the Dmax is the largest share of the target that was removed. As usually defined, the DC50 is the midpoint of the concentration-degradation curve. Low values mean a more potent degrader, high ones a less potent degrader.

Some results are limits rather than exact numbers.

Common to all, as to type: cell-based
The test system of one test is JeKo-1 cells. As to the kind of experiment: Antiproliferative effect, MTS cell viability assay, JeKo-1 cells. The note with it: Homo sapiens; JeKo-1 mantle cell lymphoma cells; read-out: IC50 (anti-proliferation) JeKO-1 cells. A digest of the protocol: (§1)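 Mino and JeKo-1 mantle B-cell lymphoma lines were exposed to compound at 0, 0.001, 0.01, 0.1, 1 and 10 μM for 72 h. Viability was read by MTS reduction to formazan, measured as absorbance at 490 nm.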

A further test concerns Mino cells. As to the kind of experiment: Antiproliferative effect, MTS cell viability assay, Mino cells. Conditions: Homo sapiens, MINO, Mino mantle cell lymphoma cells; read-out: IC50 (anti-proliferation) Mino cells. A digest of the protocol: as §1
The target in a further test is BTK (Homo sapiens, UniProt Q06187). The test can be described thus: BTK degradation, DC50 and Dmax of Table 1 (cell line not given). Set-up: endogenous in cells. Conditions: for DC50: concentration giving 50% reduction of BTK expression level.
BTK, sequence (Q06187 whole entry): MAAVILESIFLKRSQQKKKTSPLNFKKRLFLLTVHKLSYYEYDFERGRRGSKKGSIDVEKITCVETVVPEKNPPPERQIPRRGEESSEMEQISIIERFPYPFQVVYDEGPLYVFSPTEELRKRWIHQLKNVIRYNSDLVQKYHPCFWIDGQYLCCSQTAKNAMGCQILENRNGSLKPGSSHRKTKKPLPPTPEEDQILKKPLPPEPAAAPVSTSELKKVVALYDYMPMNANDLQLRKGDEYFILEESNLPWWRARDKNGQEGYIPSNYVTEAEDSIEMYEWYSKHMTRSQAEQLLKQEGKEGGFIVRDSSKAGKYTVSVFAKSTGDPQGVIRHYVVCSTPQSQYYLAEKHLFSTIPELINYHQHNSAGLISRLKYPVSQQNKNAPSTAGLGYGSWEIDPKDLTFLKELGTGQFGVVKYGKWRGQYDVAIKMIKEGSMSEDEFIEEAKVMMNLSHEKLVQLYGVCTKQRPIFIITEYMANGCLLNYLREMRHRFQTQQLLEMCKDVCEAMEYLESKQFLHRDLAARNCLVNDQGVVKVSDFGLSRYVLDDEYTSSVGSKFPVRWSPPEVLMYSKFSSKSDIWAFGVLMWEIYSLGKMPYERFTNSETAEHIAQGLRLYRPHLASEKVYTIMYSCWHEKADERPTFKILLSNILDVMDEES

In the case of `Nc1ncnc2c1c(-c1ccc(Oc3ccccc3)cc1)nn2[C@@H]1CCCN(C(=O)N2CCN(CCC3CCN(c4ccc5c(c4)CN(C4CCC(=O)NC4=O)C5=O)CC3)CC2)C1` (stereo partly drawn) [Compound 68, 3-(5-(4-(2-(4-((R)-3-(4-amino-3-(4-phenoxyphenyl)-1H-pyrazolo[3,4-d]pyrimidin-1-yl)piperidine-1-carbonyl)piperazin-1-yl)ethyl)piperidin-1-yl)-1-oxoisoindolin-2-yl)piperidine-2,6-dione], the IC50 in the test with JeKo-1 cells lay within 1 to 10 µM. Moreover, in the test on Mino cells, the IC50 was 1 to 10 µM. On BTK, this compound returned a maximal degradation (Dmax) of more than 90% and a DC50 of less than 0.01 µM.

Take `Nc1ncnc2c1c(-c1ccc(Oc3ccccc3)cc1)nn2[C@@H]1CCCN(C(=O)N2CCN(CCN3CCC(c4ccc5c(c4)C(=O)N(C4CCC(=O)NC4=O)C5=O)CC3)CC2)C1` (stereo partly drawn) [Compound 69, 5-(1-(2-(4-((R)-3-(4-amino-3-(4-phenoxyphenyl)-1H-pyrazolo[3,4-d]pyrimidin-1-yl)piperidine-1-carbonyl)piperazin-1-yl)ethyl)piperidin-4-yl)-2-(2,6-dioxopiperidin-3-yl)isoindoline-1,3-dione]: in the test on JeKo-1 cells, the IC50 lay within 1 to 10 µM. The IC50 in the test on Mino cells lay within 1 to 10 µM. On BTK, the Dmax is more than 90% and the DC50 was less than 0.01 µM.

For the compound `Nc1ncnc2c1c(-c1ccc(Oc3ccccc3)cc1)nn2[C@@H]1CCCN(C(=O)N2CCN(CCN3CCC(c4ccc5c(c4)CN(C4CCC(=O)NC4=O)C5=O)CC3)CC2)C1` (stereo partly drawn) [Compound 70, 3-(5-(1-(2-(4-((R)-3-(4-amino-3-(4-phenoxyphenyl)-1H-pyrazolo[3,4-d]pyrimidin-1-yl)piperidine-1-carbonyl)piperazin-1-yl)ethyl)piperidin-4-yl)-1-oxoisoindolin-2-yl)piperidine-2,6-dione], the IC50 in the test on JeKo-1 cells and with Mino cells was 1 to 10 µM each time. For the same compound, the Dmax at BTK is more than 90%. At BTK, the DC50 was less than 0.01 µM.

As for `Nc1ncnc2c1c(-c1ccc(Oc3ccccc3)cc1)nn2[C@@H]1CCCN(C(=O)N2CCC(CCC3CCN(c4ccc5c(c4)C(=O)N(C4CCC(=O)NC4=O)C5=O)CC3)CC2)C1` (stereo partly drawn) [Compound 71, 5-(4-(2-(1-((R)-3-(4-amino-3-(4-phenoxyphenyl)-1H-pyrazolo[3,4-d]pyrimidin-1-yl)piperidine-1-carbonyl)piperidin-4-yl)ethyl)piperidin-1-yl)-2-(2,6-dioxopiperidin-3-yl)isoindoline-1,3-dione], the IC50 in the test with JeKo-1 cells and in the test with Mino cells was 1 to 10 µM in each case. The Dmax at BTK is more than 90%. Further, the DC50 at BTK is less than 0.01 µM.

As for `Nc1ncnc2c1c(-c1ccc(Oc3ccccc3)cc1)nn2[C@@H]1CCCN(C(=O)N2CCC(CCC3CCN(c4ccc5c(c4)CN(C4CCC(=O)NC4=O)C5=O)CC3)CC2)C1` (stereo partly drawn) [Compound 72, 3-(5-(4-(2-(1-((R)-3-(4-amino-3-(4-phenoxyphenyl)-1H-pyrazolo[3,4-d]pyrimidin-1-yl)piperidine-1-carbonyl)piperidin-4-yl)ethyl)piperidin-1-yl)-1-oxoisoindolin-2-yl)piperidine-2,6-dione], the IC50 with JeKo-1 cells lay within 1 to 10 µM. In the test on Mino cells, the IC50 fell in the range of 1 to 10 µM. Also, at BTK, the Dmax was more than 90% and the DC50 was less than 0.01 µM.

Consider `Nc1ncnc2c1c(-c1ccc(Oc3ccccc3)cc1)nn2[C@@H]1CCCN(C(=O)N2CCC(CCN3CCC(c4ccc5c(c4)C(=O)N(C4CCC(=O)NC4=O)C5=O)CC3)CC2)C1` (stereo partly drawn) [Compound 73, 5-(1-(2-(1-((R)-3-(4-amino-3-(4-phenoxyphenyl)-1H-pyrazolo[3,4-d]pyrimidin-1-yl)piperidine-1-carbonyl)piperidin-4-yl)ethyl)piperidin-4-yl)-2-(2,6-dioxopiperidin-3-yl)isoindoline-1,3-dione], for which the IC50 is more than 10 µM with JeKo-1 cells and 1 to 10 µM in the test with Mino cells. Besides, the Dmax at BTK was more than 90%. The compound further yielded a half-maximal degradation concentration (DC50) on BTK of 0.01 to 0.05 µM.

With `Nc1ncnc2c1c(-c1ccc(Oc3ccccc3)cc1)nn2[C@@H]1CCCN(C(=O)N2CCC(CCN3CCC(c4ccc5c(c4)CN(C4CCC(=O)NC4=O)C5=O)CC3)CC2)C1` (stereo partly drawn) [Compound 74, 3-(5-(1-(2-(1-((R)-3-(4-amino-3-(4-phenoxyphenyl)-1H-pyrazolo[3,4-d]pyrimidin-1-yl)piperidine-1-carbonyl)piperidin-4-yl)ethyl)piperidin-4-yl)-1-oxoisoindolin-2-yl)piperidine-2,6-dione], the IC50 in the test with JeKo-1 cells and with Mino cells was more than 10 µM each time. Besides, on BTK, the greatest degradation seen (Dmax) is more than 90%. Further, the DC50 on BTK lay in the range of 0.01 to 0.05 µM.

For `Nc1ncnc2c1c(-c1ccc(Oc3ccccc3)cc1)nn2C1CCN(C(=O)N2CCN(c3ccc4c(c3)CN(C3CCC(=O)NC3=O)C4=O)CC2)CC1` (stereo not drawn) [Compound 76, 3-(5-(4-(4-(4-amino-3-(4-phenoxyphenyl)-1H-pyrazolo[3,4-d]pyrimidin-1-yl)piperidine-1-carbonyl)piperazin-1-yl)-1-oxoisoindolin-2-yl)piperidine-2,6-dione], the IC50 in the test with JeKo-1 cells and with Mino cells was more than 10 µM throughout. Moreover, the Dmax at BTK is more than 50%. The DC50 at BTK is more than 0.05 µM.

Take `Nc1ncnc2c1c(-c1ccc(Oc3ccccc3)cc1)nn2C1CCN(C(=O)N2CCC(c3ccc4c(c3)C(=O)N(C3CCC(=O)NC3=O)C4=O)CC2)CC1` (stereo not drawn) [Compound 77, 5-(1-(4-(4-amino-3-(4-phenoxyphenyl)-1H-pyrazolo[3,4-d]pyrimidin-1-yl)piperidine-1-carbonyl)piperidin-4-yl)-2-(2,6-dioxopiperidin-3-yl)isoindoline-1,3-dione]: the IC50 with JeKo-1 cells and in the test on Mino cells was more than 10 µM in each case. For the same compound, the Dmax on BTK was more than 50%. This compound yielded a DC50 at BTK of more than 0.05 µM.

Consider `Nc1ncnc2c1c(-c1ccc(Oc3ccccc3)cc1)nn2C1CCN(C(=O)N2CCC(c3ccc4c(c3)CN(C3CCC(=O)NC3=O)C4=O)CC2)CC1` (stereo not drawn) [Compound 78, 3-(5-(1-(4-(4-amino-3-(4-phenoxyphenyl)-1H-pyrazolo[3,4-d]pyrimidin-1-yl)piperidine-1-carbonyl)piperidin-4-yl)-1-oxoisoindolin-2-yl)piperidine-2,6-dione], for which the IC50 with JeKo-1 cells was more than 10 µM. The IC50 with Mino cells is more than 10 µM. Also, on BTK, the Dmax was more than 50% and the DC50 was more than 0.05 µM.

On to `Nc1ncnc2c1c(-c1ccc(Oc3ccccc3)cc1)nn2C1CCN(C(=O)N2CCC(N3CCN(c4ccc5c(c4)CN(C4CCC(=O)NC4=O)C5=O)CC3)CC2)CC1` (stereo not drawn) [Compound 82, 3-(5-(4-(1-(4-(4-amino-3-(4-phenoxyphenyl)-1H-pyrazolo(3,4-d)pyrimidin-1-yl)piperidine-1-carbonyl)piperidin-4-yl)piperazin-1-yl)-1-oxoisoindolin-2-yl)piperidine-2,6-dione], for which, in the test on JeKo-1 cells, the IC50 was more than 10 µM. For the same compound, in the test with Mino cells, the IC50 is more than 10 µM. On BTK, the Dmax is more than 75% and the DC50 was 0.01 to 0.05 µM.

Regarding `Nc1ncnc2c1c(-c1ccc(Oc3ccccc3)cc1)nn2C1CCN(C(=O)N2CCC(N3CCC(c4ccc5c(c4)C(=O)N(C4CCC(=O)NC4=O)C5=O)CC3)CC2)CC1` (stereo not drawn) [Compound 83, 5-(1′-(4-(4-amino-3-(4-phenoxyphenyl)-1H-pyrazolo[3,4-d]pyrimidin-1-yl)piperidine-1-carbonyl)-[1,4′-bipiperidin]-4-yl)-2-(2,6-dioxopiperidin-3-yl)isoindoline-1,3-dione], the IC50 in the test with JeKo-1 cells and in the test on Mino cells was more than 10 µM in each case. The same compound returned a Dmax on BTK of more than 75%. On BTK, this compound registered a DC50 of more than 0.05 µM.
